Values of other authors in US8273685B2, “Agrochemical composition” (Nippon Soda Co., Ltd., priority 2006, dated 2012).

Conditions: 1-octanol/water

SMILES	Log P
O=C(NC(=O)c1c(F)cccc1F)Nc1cc(Cl)c(OC(F)(F)C(F)F)c(Cl)c1 [Hexaflumuron, 1-[3,5-dichloro-4-(1,1,2,2-tetrafluoroethoxy)phenyl]-3-(2,6-difluorobenzoyl)urea]	4.68
COC(=O)c1c(C(F)F)nc(C(F)(F)F)c(C2=NCCS2)c1CC(C)C [Thiazopyr, methyl 2-difluoromethyl-5-(4,5-dihydro-1,3-triazol-2-yl)-4-isobutyl-6-trifluoromethylnicotinate]	3.89
CCN(Cc1c(F)cccc1Cl)c1c([N+](=O)[O-])cc(C(F)(F)F)cc1[N+](=O)[O-] [Flumetralin, N-(2-chloro-6-fluorobenzyl)-N-ethyl-alpha,alpha,alpha-trifluoro-2,6-dinitro-p-toluidine]	> 3
O=C(NC(=O)c1c(F)cccc1F)Nc1ccc(Cl)c(Oc2ncc(C(F)(F)F)cc2Cl)c1 [Fluazuron, 1-[4-chloro-3-(3-chloro-5-trifluoromethyl-2-pyridyloxy)phenyl]-3-(2,6-difluorobenzoyl)urea]	5.1
Cc1c(F)c(F)c(COC(=O)[C@@H]2[C@H](/C=C(\Cl)C(F)(F)F)C2(C)C)c(F)c1F (racemic) [Tefluthrin, 2,3,5,6-tetrafluoro-4-methylbenzyl (1RS,3RS)-3-[(Z)-2-chloro-3,3,3-trifluoroprop-1-enyl]-2,2-dimethylcyclopropanecarboxylat]	6.5
